# Reference: patent US20070219224A1, “Compositions and Methods Relating to Pyrimidine Synthesis Inhibitors” (UAB RESEARCH FOUNDATION, THE, priority 2004, published 2007)
# “Also recorded” adds a separate entry of the source.
# What was measured:
# RSV-infected BALB/c mice [1] = assay: Alveolar fluid clearance (AFC) in RSV-infected mice at day 2 p.i.; format: in vivo; conditions: for effect on RSV-mediated inhibition of AFC at d2 (in words): systemic treatment (leflunomide oral gavage; uridine, 6-MP i.p.)
# Description: Preparation of viral inocula and infection of mice. […] J. Physiol. Lung Cell Mol. Physiol. […] Data for each experimental group was derived from a minimum of 2 independent infections.
# (§1) Systemic inhibition of de novo pyrimidine and purine synthesis. Leflunomide (5-methylisoxazole-4-[4-trifluoromethyl]carboxanilide, 35 mg/kg in distilled water containing 1% methylcellulose) was administered once daily by oral gavage in a volume of 300 μl/mouse for 8 days prior to infection, then throughout the infection period. Vehicle controls were gavaged with an equivalent volume of 1% methylcellulose in distilled water.
# To systemically block de novo pyrimidine synthesis, mice were gavaged once daily for 8 days with […] of the dihydro-orotate reductase (DHOR) inhibitor leflunomide ([…] suspended in 1% methylcellulose) or vehicle prior to infection, then at 0 and 24 hours p.i. AFC studies were performed at 48 hours p.i., with no additions to the AFC instillate.
# AFC studies were performed on anesthetized, ventilated BALB/c mice with normal body temperature and blood gases, over a 30 minute period after intratracheal instillation of 0.3 ml of isosmolar NaCl containing 5% fatty acid-free BSA. The number of mice analyzed per group is listed in the relevant bar of each graph.
# RSV-infected BALB/c mice [2] = assay: Heart rate change with ventilation (% ΔHR30), ECG; format: in vivo; conditions: RSV-infected mice during AFC procedures, d2
# Description: Measurement of heart rate changes with ventilation. ECG tracings were used to measure heart rate (number of QRS complexes/cm) at the start (HRSTART) and end (HREND) of the AFC assay. The % change in rate over the 30-minute ventilation period (% ΔHR30) was calculated as (HRSTART−HREND)/HRSTART.
# as §1, with “water. Uridine (1 g/kg in 0.9% NaCl) was administered by i.p. injection every 12 hours in a volume of 100 μl (8). 6-MP (35 mg/kg in 1N NaOH, pH adjusted to 7.9 with 2 M Na2HPO4) was administered by i.p. injection every 24 hours in a volume of 100 μl, for 5 days prior to infection, then throughout the infection period.” for “water.”
compound,measurement,setting,value
"Cc1oncc1C(=O)Nc1ccc(C(F)(F)F)cc1 [Leflunomide, 5-methylisoxazole-4-[4-trifluoromethyl]carboxanilide]",amiloride-sensitive part of AFC,"RSV-infected BALB/c mice [1]; RSV-infected leflunomide-treated mice at d2 (61% in uninfected, −8% in untreated mice at d2)",57%
same,AFC30BASAL (mean % basal AFC after 30 minutes ± SE),"RSV-infected BALB/c mice [1]; RSV-infected mice, day 2 p.i., leflunomide 5 mg/kg oral gavage once daily, uridine 1 mg/kg i.p. q12h",33.4 ± 3.00 %
same,effect on RSV-mediated inhibition of AFC at d2 (in words),RSV-infected BALB/c mice [1],blocked RSV-induced inhibition of AFC
same,effect on RSV-mediated inhibition of AFC at d2 (in words),RSV-infected BALB/c mice [1]; listed as LEF,reverses RSV-mediated inhibition of AFC
same,effect on RSV-mediated inhibition of AFC at d2 (in words),RSV-infected BALB/c mice [1]; listed as leflunomide,prevented RSV-induced inhibition of AFC; also recorded: reversed the inhibitory effect of RSV on AFC
same,% ΔHR30,RSV-infected BALB/c mice [2],prevented the increase in % ΔHR30
